This is an account of results in patent US4387105A, “Methods of treating atherosclerosis with dialkylureas and dialkylthioureas” (priority 1982, dated 1983).

Structures are written as SMILES.

Test [1] concerns the target T1, fatty acyl CoA:cholesterol acyl transferase (ACAT) (Rattus norvegicus, UniProt O70536).
T1 construct: The supernatant, containing the microsomal fraction, served as the source of the cholesterol-esterifying enzyme; from tissue; host or cells: rat adrenals (1000 x g supernatant containing the microsomal fraction)
T1 sequence (O70536 1-545): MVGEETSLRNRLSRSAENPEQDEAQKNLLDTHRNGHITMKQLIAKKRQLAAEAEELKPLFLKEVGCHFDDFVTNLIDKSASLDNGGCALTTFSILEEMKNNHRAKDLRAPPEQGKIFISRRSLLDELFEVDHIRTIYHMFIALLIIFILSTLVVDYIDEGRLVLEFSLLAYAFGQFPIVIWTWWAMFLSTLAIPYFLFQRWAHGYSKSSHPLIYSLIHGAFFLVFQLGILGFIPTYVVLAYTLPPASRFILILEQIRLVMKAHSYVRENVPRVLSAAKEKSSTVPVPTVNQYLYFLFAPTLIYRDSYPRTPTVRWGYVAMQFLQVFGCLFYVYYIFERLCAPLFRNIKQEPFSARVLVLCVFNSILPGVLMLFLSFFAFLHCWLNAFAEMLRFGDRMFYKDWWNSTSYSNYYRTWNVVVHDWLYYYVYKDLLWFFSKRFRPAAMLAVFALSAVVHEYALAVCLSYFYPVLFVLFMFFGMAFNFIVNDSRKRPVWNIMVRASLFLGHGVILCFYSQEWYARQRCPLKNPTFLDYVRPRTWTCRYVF
The test can be described thus: Inhibition of ACAT in rat adrenal microsomal supernatant (14C-oleoyl CoA, cholesteryl ester counted). The format is biochemical. Set-up: dose or concentration left out as unconfirmed. The settings on record: vs control without compound. The method, then:
The compounds of the present invention were assayed for two types of biological activity related to their potential use as antiatherosclerotic agents. Compounds were tested in vitro for the ability to inhibit the enzyme fatty acyl CoA:cholesterol acyl transferase (ACAT) and in vivo for serum hypolipidemic activity as measured by their ability to inhibit lipid absorption in rats. The compounds were tested for their ability to inhibit ACAT according to the following procedure:
Rat adrenals were homogenized in 0.2 M monobasic potassium phosphate buffer, pH 7.4, and centrifuged at 1000 times gravity for 15 minutes at 5° C. The supernatant, containing the microsomal fraction, served as the source of the cholesterol-esterifying enzyme, fatty acyl CoA:cholesterol acyl transferase (ACAT). A mixture comprising 50 parts of adrenal supernatant, 10 parts of albumin (BSA) (50 mg./ml.), 3 parts of test compound (final concentration […].) and 500 parts of buffer was preincubated at 37° C. for 10 minutes. After treatment with 20 parts of oleoyl CoA(^14 C-[…]) the mixture was incubated at 37° C. for 10 minutes. A control mixture, omitting the test compound, was prepared and treated in the same manner. The lipids from the incubation mixture were extracted into an organic solvent and separated by thin-layer chromatography. The cholesteryl ester fraction was counted in a scintillation counter. This procedure is a modification of that described by Hashimoto, et al., Life Scie., 12 (Part II), 1-12 (1973).

Test [2] deals with cholesterol absorption. As to conditions: po, 0.03 % of diet, 336 h.
Method: Inhibition of cholesterol absorption was determined by feeding male Sprague-Dawley rats, weighing 150-170 g., a 1% cholesterol:0.5% cholic acid diet for 2 weeks. The diet also contained compounds being tested at a dose of 0.03% of the diet. Control rats were fed the same diet without any compound. At the end of the test the rats were sacrificed by decapitation. […] Livers are removed, a 0.4 g sample is taken from the center of the large lobe, and the sample is subjected to saponification using 25% saturated potassium hydroxide in ethanol. The resulting neutral sterols are extracted with petroleum ether and extract analyzed for cholesterol. The effectiveness of the compound in inhibiting cholesterol absorption is measured by the lowering of either serum cholesterol or liver cholesterol relative the values for control rats.
Test [3] relates to cholesterol absorption. The test can be described thus: Inhibition of cholesterol absorption in cholesterol/cholic acid fed rats given [4-14C] cholesterol by gavage (fecal 14C sterols). As to conditions: 0.01% to 0.1% of the diet for 2 weeks; [4-14C] cholesterol plus 2 mg. test compound by gavage after 9 days; feces collected 5 days. Further details: key: Active: A compound is considered active in inhibiting cholesterol absorption if it meets at least the first two criteria. The format is in vivo, male Sprague-Dawley rats. How it is done:
Inhibition of cholesterol absorption also was determined by feeding male Sprague-Dawley rats, weighing 150-170 g., a 1% cholesterol:0.5% cholic acid diet for 2 weeks. The diet also contained compounds being tested at doses of between 0.01% and 0.1% of the diet. After the rats had been on the test diet for 9 days each rat is given by gavage a sonicated mixture of [4-^14 C] cholesterol (6μCi), 0.2 ml. triolein, 10 mg. cholic acid, 20 mg. cholesterol and 2 mg. of test compound in 0.8 ml. of 10% non-fat dry milk. Feces were collected for each 24 hour period for the remaining 5 days during which the rats were maintained on the 1% cholesterol:0.5% cholic acid plus test compound diet. Fecal ^14 C-neutral sterols were extracted with petroleum ether from saponified feces by the method of Grundy, S. M., et al., J. Lipid Res., 6, 397 (1965) and counted in a scintillation counter. Acidic sterols (bile acids) were extracted by acidifying the saponified feces and extracting in chloroform:methanol (2:1) and counting the chloroform phase in a scintillation counter. Total extraction of radioactivity (98-100%) from saponified feces is realized by this procedure.
Radioactivity in liver and adrenals were determined by saponification and extraction into petroleum ether and counting by scintillation techniques. Total cholesterol in liver and adrenals was determined by the cholorimetric melthod of Zlatkis, A., et al., J. Lab. Clin. Med., 41, 486 (1953) on saponified-organic solvent extracted tissue prepared by the method of Trinder, P., Analyst, 77, 321 (1952). Serum cholesterol and triglycerides were assayed enzymaticaly by the method of Allain, C. C., et al., Clin. Chem., 20, 470 (1974) on a Centrifichem 400 Analyzer. ^14 C-Cholesterol in serum was determined by direct scintillation counting.
The effect of test compounds on cholesterol absorption was determined by:
1. increase in excreted ^14 C-neutral sterol
2. decrease in excreted ^14 C-acidic sterol
3. decrease in ^14 C-cholesterol or ^14 C-cholesteryl ester in the liver
4. decrease in ^14 C-cholesterol or ^14 C-cholesteryl ester in the serum. […]

The % Inhibition is the percentage by which the read-out fell short of the control. For the molecule `CCCCN(CCCC)C(=O)Nc1ccccc1C` [1,1-di-(n-butyl)-3-(2-methylphenyl)urea, 1,1-Di-(n-butyl)-3-(2-methylphenyl)urea], the “% Inhibition” value in test [1] stood at 61.8%. Moreover, the “Result (inhibition of cholesterol absorption: lowering of either serum cholesterol or liver cholesterol relative to control rats)” value in test [2] was “Active”.

As to `CCCCN(CCCC)C(=O)Nc1ccc(C)cc1C` [1,1-Di-(n-butyl)-3-(2,4-dimethylphenyl)urea], in test [3], the “Result (inhibition of cholesterol absorption: increase in excreted 14C-neutral sterol and decrease in excreted 14C-acidic sterol)” value was “Active”. In test [1], the “% Inhibition” value is given as 81.1%. For the same molecule, the “Result (inhibition of cholesterol absorption: lowering of either serum cholesterol or liver cholesterol relative to control rats)” value in test [2] is recorded as “Active”.

As for `CCCCCN(CCCCC)C(=O)Nc1ccc(C)cc1C` [1,1-Di-(n-pentyl)-3-(2,4-dimethylphenyl)urea], in test [3], the “Result (inhibition of cholesterol absorption: increase in excreted 14C-neutral sterol and decrease in excreted 14C-acidic sterol)” value is “Active”. Besides, in test [1], the “% Inhibition” value worked out at 90.3%. The “Result (inhibition of cholesterol absorption: lowering of either serum cholesterol or liver cholesterol relative to control rats)” value in test [2] is listed as “Active”.

For the molecule `Cc1ccc(NC(=O)N(CCC(C)C)CCC(C)C)c(C)c1` [1,1-Di-(n-isopentyl)-3-(2,4-dimethylphenyl)urea], the “% Inhibition” value in test [1] came out at 88.7%. Also, the “Result (inhibition of cholesterol absorption: lowering of either serum cholesterol or liver cholesterol relative to control rats)” value in test [2] is on record as “Active”.

As to `CCCCCCCCCCN(CCCCCCCCCC)C(=O)Nc1ccc(C)cc1C` [1,1-Di-(n-decyl)-3-(2,4-dimethylphenyl)urea], the “% Inhibition” value in test [1] stood at 64.0%. Moreover, the “Result (inhibition of cholesterol absorption: lowering of either serum cholesterol or liver cholesterol relative to control rats)” value in test [2] was “Active”.

Consider `CCCCN(CCCC)C(=O)Nc1cc(Cl)cc(Cl)c1` [1,1-Di-(n-butyl)-3-(3,5-dichlorophenyl)urea], for which the “% Inhibition” value in test [1] turned out to be 79.3%. Further, the “Result (inhibition of cholesterol absorption: lowering of either serum cholesterol or liver cholesterol relative to control rats)” value in test [2] is reported as “Active”.

Consider `CCCCN(CCCC)C(=O)Nc1cc(C)cc(C)c1` [1,1-Di-(n-butyl)-3-(3,5-dimethylphenyl)urea], for which the “% Inhibition” value in test [1] was found to be 83.5%. Besides, the “Result (inhibition of cholesterol absorption: lowering of either serum cholesterol or liver cholesterol relative to control rats)” value in test [2] was “Active”.

On to `CCCCN(CCCC)C(=O)Nc1cccc(Cl)c1C` [1,1-Di-(n-butyl)-3-(3-chloro-2-methylphenyl)urea], for which the “% Inhibition” value in test [1] came to 80.2%. Also, in test [2], the “Result (inhibition of cholesterol absorption: lowering of either serum cholesterol or liver cholesterol relative to control rats)” value is given as “Active”.

Turning to `CCCCCCCCN(CCCCCCCC)C(=O)Nc1ccc(C)cc1C` [1,1-Di-(n-octyl)-3-(2,4-dimethylphenyl)urea], the “% Inhibition” value in test [1] was determined as 88.6%. In test [2], the “Result (inhibition of cholesterol absorption: lowering of either serum cholesterol or liver cholesterol relative to control rats)” value is “Active”.

As to `CCCCCCN(CCCCCC)C(=O)Nc1ccc(C)cc1C` [1,1-Di-(n-hexyl)-3-(2,4-dimethylphenyl)urea], in test [3], the “Result (inhibition of cholesterol absorption: increase in excreted 14C-neutral sterol and decrease in excreted 14C-acidic sterol)” value is reported as “Active”. In addition, the “% Inhibition” value in test [1] was found to be 95.1%. In addition, in test [2], the “Result (inhibition of cholesterol absorption: lowering of either serum cholesterol or liver cholesterol relative to control rats)” value was “Active”.

With `CCCCc1ccc(NC(=O)N(CCCC)CCCC)cc1` [1,1-di-(n-butyl)-3-(4-n-butylphenyl)urea, 1,1-Di-(n-butyl)-3-(4-n-butylphenyl)urea], the “% Inhibition” value in test [1] was determined as 93.5%. The “Result (inhibition of cholesterol absorption: lowering of either serum cholesterol or liver cholesterol relative to control rats)” value in test [2] is “Active”.
